Source: the NIST ThermoML archive (doi:10.1016/j.fluid.2012.03.016)

Conditions: Pendant drop shape

C/C=C(\C)C(=O)[O-].C[N+](C)(C)CCO
Conditions | surface tension liquid-gas [mN/m]
294 K | 31.6
303.9 K | 30.7
314.2 K | 30.7
323.9 K | 30.9
333.5 K | 30.2
338 K | 29.8
340.1 K | 29.9
346.2 K | 29.9
348.2 K | 28.5
357.4 K | 28
362.5 K | 28.2
373 K | 27.6
379.5 K | 26.1
391.8 K | 26.4

C[N+](C)(C)CCO.O=C([O-])CCC(=O)O [2-hydroxy-N,N,N-trimethylethanaminium 3-carboxypropanoate]
Conditions | surface tension liquid-gas [mN/m]
308.2 K | 40.7
313.9 K | 40.4
319.2 K | 40.1
324 K | 39.5
328.5 K | 39.5
333.6 K | 38.9
339.4 K | 38.4

CCC(=O)[O-].C[N+](C)(C)CCO [cholinium propanoate]
Conditions | surface tension liquid-gas [mN/m]
294 K | 34.6
302.6 K | 33.3
313.7 K | 32.6
324.1 K | 32.3
333.8 K | 31.7
343.4 K | 31.2
354.5 K | 30.9
373.4 K | 29.5
392.6 K | 28.6
